According to patent US10495796B2, “Near-infrared cut filter” (AGC INC., priority 2012, dated 2019):
Blank lines part the entries; values can stand above or below the compound they belong to.

Key:
[1] = Solubility of dye to organic solvent; assay type: physicochemical; conditions: 50° C., mass % of the dye to the mass of the entire solution; for Solubility to organic solvent: MIBK: methyl isobutyl ketone
Description: Regarding the dyes (A11-1) to (A11-10) and (A11-20) to (A11-27) obtained above, solubility to organic solvent was evaluated as follows.
Three kinds of solvents, cyclohexanone, methyl isobutyl ketone (MIBK), toluene, were used as the organic solvent in the solubility test. Note that in Table 3, % is mass % of the dye to the mass of the entire solution. Further, the temperature of each organic solvent in the solubility test was 50° C.

[2] = Absorption characteristics: transmission spectrum of near-infrared absorbing layer of NIR filter (UV-visible spectrophotometer); assay type: physicochemical
Description: Further, the transmittance of the near-infrared absorbing layer can be measured by using an ultraviolet visible light spectrophotometer. For example, when the near-infrared absorbing layer is provided on a glass substrate, the transmittance is calculated by subtracting the transmittance of only the glass substrate. Note that the transmittance of light of the near-infrared absorbing layer refers to, unless otherwise stated, a ratio to light incident from a direction orthogonal to a main surface of a sample, the ratio of this light traveling straight inside the sample and transmitted to an opposite side. Further, when the transmittance is measured by making light incident from a direction other than the direction orthogonal to the main surface of the sample in the measurement of transmittance of light, an angle made by a straight line indicating the direction of the incident light to a line orthogonal to the main surface is called an incident angle.
In the condition (ii-3), the value calculated by nd(B)×(λa−λc) (hereinafter, this value may also be described as “Is value”) is a value to be an index indicating steepness of the absorption curve in the vicinity of the boundary between the visible light region and the near-infrared region with respect to a transmission spectrum of the near-infrared absorbing layer. When this value is 115 or less, the absorption curve in the vicinity of the boundary between the visible light region and the near-infrared region is steep with respect to the near-infrared absorbing layer, which can be said as preferable for the NIR filter.
That is, with respect to the transmission spectrum of the near-infrared absorbing layer, the smaller the difference (λa−λc) between the shortest wavelength λa with transmittance of 1% in the region of 650 nm to 800 nm and the wavelength λc with transmittance of 70% on a shorter wavelength side than the λa, the steeper the absorption curve in the vicinity of the boundary between the visible light region and the near-infrared region. Here, λa−λc also depends on a wavelength width having transmittance of 1% or less (λb−λa; λb is the longest wavelength with transmittance of 1% in the wavelength region of 650 nm to 800 nm). Accordingly, in order to compare and evaluate the steepness of the absorption curve in the above region of the transmission spectrum of the near-infrared absorbing layer, λb−λa is fixed to 30 nm. That is, λb−λa of the near-infrared absorbing layer which the present filter has is not limited to 30 nm.
Further, in the Is value, (λa−λc) is multiplied by the refractive index nd(B) of the transparent resin (B) contained in the near-infrared absorbing layer as a coefficient. This is to standardize the difference in steepness among resins.
Regarding transmittance (%/nm) of the NIR filters 1 to 109 obtained above, transmission spectra were measured and calculated by using an ultraviolet visible light spectrophotometer (U-4100 type spectrophotometer made by Hitachi High-Technologies Corporation). Analysis results of transmission spectra of the near-infrared absorbing layers which the NIR filters have are presented in Table 4, Table 5 and Table 6 for the NIR filters 1 to 25, 26 to 51, 52 to 75, respectively, and are presented in Table 7 and Table 8 for the NIR filters 76 to 94, 95 to 109, respectively. In Table 4 to Table 8, the ratios (parts by mass) of dyes to 100 parts by mass of the transparent resin (B) and film thicknesses of the near-infrared absorbing layers are described together.
Further, conditions of preferred transmission spectra of the near-infrared absorbing layers in the present filter and Is values obtained by the formula: nd(B)×(λa-λc) described in above (ii-3) are described in Table 4 to Table 8 together with λa in the condition (ii-1) and λb-λa in the condition (ii-2). Note that values described in Table 4 to Table 8 are values obtained by subtracting transmittance of a glass plate from transmittance of an NIR filter. […]

[3] = transparent resin acrylic resin BR50, nd(B) 1.56, film thickness 2.3 μm
[4] = transparent resin polycarbonate EP5000, nd(B) 1.63, film thickness 2.4 μm
[5] = transparent resin polycarbonate SP3810, nd(B) 1.63, film thickness 1.0 μm
[6] = transparent resin polycarbonate SP3810, nd(B) 1.63, film thickness 2.8 μm

- Solubility to organic solvent: Cyclohexanone [1]: 10%< mass %
- Solubility to organic solvent: MIBK [1]: 10%< mass %
- Solubility to organic solvent: Toluene [1]: 10%< mass %
SMILES: CCN1c2cc(NC(=O)C(C)(C)CCCOc3cc(C)ccc3C)c(C3=C([O-])C(=c4cc5c(cc4NC(=O)C(C)(C)CCCOc4cc(C)ccc4C)=[N+](CC)C(C)C5(C)C)C3=O)cc2C(C)(C)C1C (centres unmarked) [Example A11-8]

- Solubility to organic solvent: Cyclohexanone [1]: 2.50% mass %
- Solubility to organic solvent: MIBK [1]: <1.0% mass %
- Solubility to organic solvent: Toluene [1]: 2.50% mass %
SMILES: CCCCCCC(=O)Nc1cc2c(cc1C1=C([O-])C(=c3cc4c(cc3NC(=O)CCCCCC)=[N+](C)C(C)C4(C)C)C1=O)C(C)(C)C(C)N2C (centres unmarked) [Example A11-23, reference compound]

Continued, compound first:

SMILES: CCCCC(CC)C(=O)Nc1cc2c(cc1C1=C([O-])C(=c3cc4c(cc3NC(=O)C(CC)CCCC)=[N+](CCC)C(C)C4(C)C)C1=O)C(C)(C)C(C)N2CCC (centres unmarked) [Example A11-6]
- Solubility to organic solvent: Cyclohexanone [1]: 10%< mass %
- Solubility to organic solvent: MIBK [1]: 10%< mass %
- Solubility to organic solvent: Toluene [1]: 10%< mass %

SMILES: CCCC(=O)Nc1cc2c(cc1C1=C([O-])C(=c3cc4c(cc3NC(=O)CCC)=[N+](C)C(C)C4(C)C)C1=O)C(C)(C)C(C)N2C (centres unmarked) [Example A11-21, reference compound]
- Solubility to organic solvent: Cyclohexanone [1]: <1.0% mass %
- Solubility to organic solvent: MIBK [1]: <1.0% mass %
- Solubility to organic solvent: Toluene [1]: <1.0% mass %

SMILES: CC(C)C(=O)Nc1cc2c(cc1C1=C([O-])C(=c3cc4c(cc3NC(=O)C(C)C)=[N+](C)C(C)C4(C)C)C1=O)C(C)(C)C(C)N2C (centres unmarked) [Example A11-26, reference compound]
- Solubility to organic solvent: Cyclohexanone [1]: <1.0% mass %
- Solubility to organic solvent: MIBK [1]: <1.0% mass %
- Solubility to organic solvent: Toluene [1]: <1.0% mass %

SMILES: Cc1ccc(C)c(OCCCC(C)(C)C(=O)Nc2cc3c(cc2C2=C([O-])C(=c4cc5c(cc4NC(=O)C(C)(C)CCCOc4cc(C)ccc4C)=[N+](C)C(C)C5(C)C)C2=O)C(C)(C)C(C)N3C)c1 (centres unmarked) [Example A11-13]
- 430 nm to 600 nm Average transmittance [2, 3]: 94.8%
- Is value (nd(B)×(λa-λc)) [2, 3]: 110.9
- λa [2, 3]: 683 nm
- λa − λc [2, 3]: 71 nm
- λb [2, 3]: 713 nm
- λb − λa [2, 3]: 30 nm
- λc [2, 3]: 612 nm
- λmax [2, 3]: 700 nm
- 430 nm to 600 nm Average transmittance [2, 4]: 96.1%
- Is value (nd(B)×(λa-λc)) [2, 4]: 111.0
- λa [2, 4]: 689 nm
- λa − λc [2, 4]: 68 nm
- λb [2, 4]: 719 nm
- λb − λa [2, 4]: 30 nm
- λc [2, 4]: 621 nm
- λmax [2, 4]: 705 nm
- 430 nm to 600 nm Average transmittance [2, 5]: 97.3%
- Is value (nd(B)×(λa-λc)) [2, 5]: 112.8
- λa [2, 5]: 689 nm
- λa − λc [2, 5]: 69 nm
- λb [2, 5]: 719 nm
- λb − λa [2, 5]: 30 nm
- λc [2, 5]: 620 nm
- λmax [2, 5]: 700 nm
- 430 nm to 600 nm Average transmittance [2, 6]: 95.1%
- Is value (nd(B)×(λa-λc)) [2, 6]: 112.8
- λa [2, 6]: 689 nm
- λa − λc [2, 6]: 69 nm
- λb [2, 6]: 719 nm
- λb − λa [2, 6]: 30 nm
- λc [2, 6]: 620 nm
- λmax [2, 6]: 705 nm
